ChEMBL document CHEMBL1773062, “Opioid receptor probes derived from cycloaddition of the hallucinogen natural product salvinorin A” (J Nat Prod, 2011)

Assays:
[1] = target: Mu-type opioid receptor (Homo sapiens, UniProt P35372); assay: Displacement of [3H]DAMGO from mu opioid receptor
[2] = Selectivity ratio of Ki for mu opioid receptor to Ki for kappa opioid receptor
[3] = target: T1, Kappa-type opioid receptor (Homo sapiens, UniProt P41145); assay: Displacement of [3H]U69593 from kappa opioid receptor
T1 sequence (P41145 whole entry): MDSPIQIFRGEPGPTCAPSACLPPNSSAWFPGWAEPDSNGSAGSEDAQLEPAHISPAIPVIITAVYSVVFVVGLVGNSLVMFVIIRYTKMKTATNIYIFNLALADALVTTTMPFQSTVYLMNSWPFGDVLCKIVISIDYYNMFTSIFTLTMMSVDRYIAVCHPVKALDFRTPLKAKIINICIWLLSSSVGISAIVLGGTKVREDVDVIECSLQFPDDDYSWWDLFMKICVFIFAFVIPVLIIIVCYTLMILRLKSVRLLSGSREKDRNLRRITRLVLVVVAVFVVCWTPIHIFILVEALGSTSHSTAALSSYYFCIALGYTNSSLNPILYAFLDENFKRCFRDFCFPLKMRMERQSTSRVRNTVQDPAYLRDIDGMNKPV

[4] = target: Delta-type opioid receptor (Homo sapiens, UniProt P41143); assay: Displacement of [3H]DADLE from delta opioid receptor
Sequence of Delta-type opioid receptor (P41143 whole entry): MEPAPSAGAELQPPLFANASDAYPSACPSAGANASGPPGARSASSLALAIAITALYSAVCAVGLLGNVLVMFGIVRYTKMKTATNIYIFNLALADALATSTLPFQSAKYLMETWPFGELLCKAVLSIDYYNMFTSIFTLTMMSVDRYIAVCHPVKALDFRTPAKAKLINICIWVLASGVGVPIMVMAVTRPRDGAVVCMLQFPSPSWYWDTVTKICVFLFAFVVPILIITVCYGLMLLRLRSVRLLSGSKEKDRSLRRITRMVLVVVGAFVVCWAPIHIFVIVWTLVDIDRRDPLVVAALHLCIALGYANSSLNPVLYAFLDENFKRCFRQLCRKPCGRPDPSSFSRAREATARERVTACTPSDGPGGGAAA

[5] = Selectivity ratio of Ki for delta opioid receptor to Ki for kappa opioid receptor
[6] = target: T1, Kappa-type opioid receptor; assay: Agonist activity at kappa opioid receptor assessed as stimulation of [35S]GTPgammaS binding relative to U50488; format: functional

Sequence of Mu-type opioid receptor (P35372 whole entry): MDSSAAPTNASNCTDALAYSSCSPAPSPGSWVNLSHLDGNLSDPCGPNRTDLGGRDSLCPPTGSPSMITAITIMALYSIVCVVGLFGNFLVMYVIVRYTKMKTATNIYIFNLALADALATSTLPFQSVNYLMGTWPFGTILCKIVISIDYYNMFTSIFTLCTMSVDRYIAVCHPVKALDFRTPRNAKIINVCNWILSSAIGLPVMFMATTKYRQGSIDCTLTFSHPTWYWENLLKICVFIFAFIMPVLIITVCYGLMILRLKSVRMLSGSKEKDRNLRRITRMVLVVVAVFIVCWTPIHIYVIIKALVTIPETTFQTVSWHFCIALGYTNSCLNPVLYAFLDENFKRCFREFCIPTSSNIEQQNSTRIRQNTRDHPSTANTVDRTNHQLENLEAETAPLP

**Q.** Which results are given for `COC(=O)[C@@H]1C[C@H](OC(C)=O)C(=O)[C@H]2[C@@]1(C)CC[C@H]1C(=O)O[C@H](C3=CC4OC3C3C4C4OC3(C)c3c4c4ccccc4c(=O)c4ccccc34)C[C@]21C` (some centres not stated)?
**A.** Ki [1]: > 1700 nM; Ratio Ki [2]: > 6; Ki [3]: 290 nM; Ki [4]: > 5000 nM; Ratio Ki [5]: > 17

**Q.** For `COC(=O)[C@@H]1C[C@H](OC(C)=O)C(=O)[C@H]2[C@@]1(C)CC[C@H]1C(=O)O[C@H](C3=CC4OC3C3C5OC(c6c5c5ccccc5c(=O)c5ccccc65)C43)C[C@]21C` (mixture of isomers), which Ki [1] is on record?
**A.** The Ki was > 2700 nM.

**Q.** And the Ratio Ki [2]?
**A.** Its Ratio Ki is > 0.2.

**Q.** What about the Ki [3] of the same compound?
**A.** Its Ki is > 13000 nM.

**Q.** What about the Ki [4] of the same compound?
**A.** Its Ki is > 5200 nM.

**Q.** And the Ratio Ki [5]?
**A.** The Ratio Ki was > 17.

**Q.** With `COC(=O)[C@@H]1C[C@H](OC(C)=O)C(=O)[C@H]2[C@@]1(C)CC[C@H]1C(=O)O[C@H](C3=CC4OC3c3ccccc34)C[C@]21C` (some centres not stated) as the compound, how does the Ki [1] read?
**A.** The Ki was > 2500 nM.

**Q.** And the Ratio Ki [2]?
**A.** The Ratio Ki was > 3.

**Q.** What about the Ki [3] of the same compound?
**A.** Its Ki is 790 nM.

**Q.** What about the Ki [4] of the same compound?
**A.** Its Ki is > 10000 nM.

**Q.** And the Ratio Ki [5]?
**A.** Its Ratio Ki is > 13.

**Q.** For `COC(=O)c1ccc([C@@H]2C[C@]3(C)[C@H]4C(=O)[C@@H](OC(C)=O)C[C@@H](C(=O)OC)[C@]4(C)CC[C@H]3C(=O)O2)cc1C(=O)OC`, which Ki [1] is on record?
**A.** The Ki was > 3000 nM.

**Q.** What about the Ratio Ki [2] of the same compound?
**A.** Its Ratio Ki is > 8.

**Q.** And the Ki [3]?
**A.** Its Ki is 286 nM.

**Q.** And the Ki [4]?
**A.** Its Ki is > 5000 nM.

**Q.** What about the Ratio Ki [5] of the same compound?
**A.** Its Ratio Ki is > 17.

**Q.** For `COC(=O)C1=C(C(=O)OC)C2OC1C=C2[C@@H]1C[C@]2(C)[C@H]3C(=O)[C@@H](OC(C)=O)C[C@@H](C(=O)OC)[C@]3(C)CC[C@H]2C(=O)O1` (some centres not stated), which Ki [1] is on record?
**A.** Its Ki is > 4800 nM.

**Q.** And the Ratio Ki [2]?
**A.** Its Ratio Ki is > 80.

**Q.** And the Ki [3]?
**A.** The Ki was 60 nM.

**Q.** And the Emax [6]?
**A.** Its Emax is 100%.

**Q.** And the Ki [4]?
**A.** Its Ki is > 5000 nM.

**Q.** What about the Ratio Ki [5] of the same compound?
**A.** The Ratio Ki was > 83.

**Q.** What does the source list for `COC(=O)[C@@H]1C[C@H](OC(C)=O)C(=O)[C@H]2[C@@]1(C)CC[C@H]1C(=O)O[C@H](c3ccc4ccccc4c3)C[C@]21C`?
**A.** Ki [1]: > 3000 nM; Ratio Ki [2]: > 0.4; Ki [3]: > 8000 nM; Ki [4]: > 5000 nM; Ratio Ki [5]: > 0.6

**Q.** For `CCOC(=O)c1ccc([C@@H]2C[C@]3(C)[C@H]4C(=O)[C@@H](OC(C)=O)C[C@@H](C(=O)OC)[C@]4(C)CC[C@H]3C(=O)O2)cc1C(=O)OCC`, which Ki [1] is on record?
**A.** The Ki was > 3000 nM.

**Q.** And the Ratio Ki [2]?
**A.** The Ratio Ki was > 13.

**Q.** And the Ki [3]?
**A.** The Ki was 228 nM.

**Q.** What about the Ki [4] of the same compound?
**A.** The Ki was > 5000 nM.

**Q.** What about the Ratio Ki [5] of the same compound?
**A.** Its Ratio Ki is > 22.

**Q.** With `CCOC(=O)C1=C(C(=O)OCC)C2OC1C=C2[C@@H]1C[C@]2(C)[C@H]3C(=O)[C@@H](OC(C)=O)C[C@@H](C(=O)OC)[C@]3(C)CC[C@H]2C(=O)O1` (some centres not stated) as the compound, how does the Ki [1] read?
**A.** Its Ki is > 3200 nM.

**Q.** And the Ratio Ki [2]?
**A.** The Ratio Ki was > 25.

**Q.** And the Ki [3]?
**A.** The Ki was 120 nM.

**Q.** And the Emax [6]?
**A.** The Emax was 90%.

**Q.** And the Ki [4]?
**A.** Its Ki is 2260 nM.

**Q.** And the Ratio Ki [5]?
**A.** The Ratio Ki was 19.
